Measurements as given in US8735414B2 (priority 2009, dated 2014).

What was measured:
[1] = system: bicistronic HCV replicon (replicon RNA, GenBank Accession No. AJ242654); test: HCV Replicon Assay; type: cell-based; conditions: Hepatitis C virus, 72 h, read-out: Replicon IC50

| Compound | IC50 [1] [nM] | melting point [°C] |
| --- | --- | --- |
| C[C@H](NS(=O)(=O)c1ccc(-c2c(C(N)=O)c3c(F)cc(OC(F)F)cc3n2CC2CC2)nc1)C(F)(F)F [compound 840, 1-(cyclopropylmethyl)-6-(difluoromethoxy)-4-fluoro-2-(5-{[(2S)-1,1,1-trifluoropropan-2-yl]sulfamoyl}pyridin-2-yl)-1H-indole-3-carboxamide] | < 500 | 211 to 212 |
| Cc1cc2c(cc1F)c(C(N)=O)c(-c1ccc(S(=O)(=O)N[C@@H](C)C(F)(F)F)cn1)n2-c1ccccn1 [compound 874, 5-fluoro-6-methyl-1-(pyridin-2-yl)-2-(5-{[(2S)-1,1,1-trifluoropropan-2-yl]sulfamoyl}pyridin-2-yl)-1H-indole-3-carboxamide] | < 500 | 142 to 148 |
| Cc1cc(-n2c(-c3ccc(S(=O)(=O)N[C@@H](C)C(F)(F)F)cn3)c(C#N)c3cc(F)c(C)cc32)cs1 [compound 1058, 6-[3-cyano-5-fluoro-6-methyl-1-(5-methylthiophen-3-yl)-1H-indol-2-yl]-N-[(2S)-1,1,1-trifluoropropan-2-yl]pyridine-3-sulfonamide] | < 500 | 210.5 to 215.2 |
| Cc1cc2c(cc1F)c(C#N)c(-c1ccc(S(=O)(=O)NC(CF)CF)cn1)n2C1CCCC1 [compound 407, 6-(3-cyano-1-cyclopentyl-5-fluoro-6-methyl-1H-indol-2-yl)-N-(1,3-difluoropropan-2-yl)pyridine-3-sulfonamide] | < 500 | 211 to 213 |
| CCS(=O)(=O)Nc1ccc(-c2c(C#N)c3ccc(OC(C)C)cc3n2CC2CC2)nc1 [compound 279, N-{6-[3-cyano-1-(cyclopropylmethyl)-6-(propan-2-yloxy)-1H-indol-2-yl]pyridin-3-yl}ethanesulfonamide] | 500 to 2000 | 149 to 154 |
| Cc1cc2c(cc1F)c(C#N)c(-c1ccc(S(=O)(=O)NC3(C(F)(F)F)CC3)cn1)n2C1CCC1 [compound 613, 6-(3-cyano-1-cyclobutyl-5-fluoro-6-methyl-1H-indol-2-yl)-N-[1-(trifluoromethyl)cyclopropyl]pyridine-3-sulfonamide] | < 500 | 223 to 232 |
| Cc1ccc2c(C#N)c(-c3ncc(S(=O)(=O)N[C@H](C)C(F)(F)F)cn3)n(C3CCC3)c2c1 [compound 181, 2-(3-cyano-1-cyclobutyl-6-methyl-1H-indol-2-yl)-N-[(2R)-1,1,1-trifluoropropan-2-yl]pyrimidine-5-sulfonamide] | < 500 | 143 to 145 |
| COc1ccc2c(C#N)c(-c3ncc(S(=O)(=O)N[C@@H](C)C(F)(F)F)cn3)n(C3CCCC3)c2c1 [compound 406, 2-(3-cyano-1-cyclopentyl-6-methoxy-1H-indol-2-yl)-N-[(2S)-1,1,1-trifluoropropan-2-yl]pyrimidine-5-sulfonamide] | < 500 | 211 to 212 |
| COc1cc2c(cc1F)c(C#N)c(-c1ccc(S(=O)(=O)NC(CF)CF)cn1)n2C1CCC1 [compound 102, 6-(3-cyano-1-cyclobutyl-5-fluoro-6-methoxy-1H-indol-2-yl)-N-(1,3-difluoropropan-2-yl)pyridine-3-sulfonamide] | < 500 | 217 to 219 |
| N#Cc1c(-c2ccc(S(=O)(=O)NC3CC(F)(F)C3)cn2)n(C2CCC2)c2cc(C3CC3)ccc12 [compound 247, 6-(3-cyano-1-cyclobutyl-6-cyclopropyl-1H-indol-2-yl)-N-(3,3-difluorocyclobutyl)pyridine-3-sulfonamide] | 500 to 2000 | 176 to 178 |
| CC(C)(NS(=O)(=O)c1ccc(-c2c(C(N)=O)c3cc(F)c(OC(F)F)cc3n2C2CCC2)nc1)C(F)(F)F [compound 729, 1-cyclobutyl-6-(difluoromethoxy)-5-fluoro-2-{5-[(1,1,1-trifluoro-2-methylpropan-2-yl)sulfamoyl]pyridin-2-yl}-1H-indole-3-carboxamide] | < 500 | 207 to 209 |
| Cc1ccc2c(C#N)c(-c3ncc(S(=O)(=O)NC(C)C)cn3)n(C3CCCC3)c2c1 [compound 74, 2-(3-cyano-1-cyclopentyl-6-methyl-1H-indol-2-yl)-N-(propan-2-yl)pyrimidine-5-sulfonamide] | < 500 | 213 to 214 |
| CCc1cc2c(cc1F)c(C#N)c(-c1ccc(S(=O)(=O)N[C@@H](C)C(F)(F)F)cn1)n2-c1ncc(Cl)cn1 [compound 942, 6-[1-(5-chloropyrimidin-2-yl)-3-cyano-6-ethyl-5-fluoro-1H-indol-2-yl]-N-[(2S)-1,1,1-trifluoropropan-2-yl]pyridine-3-sulfonamide] | < 500 | 222 to 229 |
| Cc1ccc2c(C#N)c(-c3ccc(S(=O)(=O)N[C@@H](C)C(F)(F)F)cn3)n(-c3ncccn3)c2c1 [compound 677, 6-[3-cyano-6-methyl-1-(pyrimidin-2-yl)-1H-indol-2-yl]-N-[(2S)-1,1,1-trifluoropropan-2-yl]pyridine-3-sulfonamide] | < 500 | 195 to 198 |
| N#Cc1c(-c2ccc(S(=O)(=O)NC(CF)CF)cn2)n(-c2ccccn2)c2cc(Cl)ccc12 [compound 438, 6-[6-chloro-3-cyano-1-(pyridin-2-yl)-1H-indol-2-yl]-N-(1,3-difluoropropan-2-yl)pyridine-3-sulfonamide] | < 500 | 219 to 221 |
| Cc1cc2c(cc1F)c(C(N)=O)c(-c1ccc(S(=O)(=O)N[C@@H](C)C(F)(F)F)cn1)n2-c1ccc(F)cn1 [compound 876, 5-fluoro-1-(5-fluoropyridin-2-yl)-6-methyl-2-(5-{[(2S)-1,1,1-trifluoropropan-2-yl]sulfamoyl}pyridin-2-yl)-1H-indole-3-carboxamide] | < 500 | 224 to 228 |
| CC(C)NS(=O)(=O)c1cnc(-c2c(C#N)c3ccc(C4CC4)cc3n2C2CCC2)nc1 [compound 71, 2-(3-cyano-1-cyclobutyl-6-cyclopropyl-1H-indol-2-yl)-N-(propan-2-yl)pyrimidine-5-sulfonamide] | < 500 | 192 to 193 |
| CC(C)NS(=O)(=O)c1cnc(-c2c(C#N)c3ccc(F)cc3n2C2CCC2)nc1 [compound 138, 2-(3-cyano-1-cyclobutyl-6-fluoro-1H-indol-2-yl)-N-(propan-2-yl)pyrimidine-5-sulfonamide] | 500 to 2000 | 193 to 195 |
| Cc1cc2c(cc1F)c(C#N)c(-c1ccc(S(=O)(=O)N[C@@H](C)C(F)(F)F)cn1)n2-c1cccc(Cl)n1 [compound 962, 6-[1-(6-chloropyridin-2-yl)-3-cyano-5-fluoro-6-methyl-1H-indol-2-yl]-N-[(2S)-1,1,1-trifluoropropan-2-yl]pyridine-3-sulfonamide] | < 500 | 253 to 257 |
| C[C@@H](NS(=O)(=O)c1ccc(-c2c(C#N)c3ccc(OC(F)F)cc3n2-c2ccc(F)cc2)nc1)C(F)(F)F [compound 649, 6-[3-cyano-6-(difluoromethoxy)-1-(4-fluorophenyl)-1H-indol-2-yl]-N-[(2R)-1,1,1-trifluoropropan-2-yl]pyridine-3-sulfonamide] | < 500 | 199 to 203 |
